According to patent publication US8802597B2, “Herbicidal pyrimidines” (E I du Pont de Nemours and Company, priority 2003, dated 2014):
Where two headings read alike, the source gives them in different places.

Tests used:
Assay type in all cases: in vivo
[1] = test system: barnyardgrass (Echinochloa crus-galli); experiment: Test B flooded paddy test; conditions: Echinochloa crus-galli, Flood, 1000 g ai/ha; scale 0 (no effect) to 100 (complete control); read-out: Plant response rating, Barnyardgrass
Outline: (§1)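 Plants were grown to the 2-leaf stage before treatment, then kept in a greenhouse for 13 to 15 days. Injury was rated visually against untreated controls on a 0 to 100 scale, where 0 is no effect and 100 is complete control.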

rice (Oryza sativa) = experiment: Test B flooded paddy test; conditions: Oryza sativa, Flood, 1000 g ai/ha; scale 0 to 100; read-out: Plant response rating, Rice
Outline: as §1

[2] = test system: duck salad (Heteranthera limosa); experiment: Test B flooded paddy test; conditions: Heteranthera limosa, Flood, 1000 g ai/ha; scale 0 to 100; read-out: Plant response rating, Ducksalad
Outline: as §1

[3] = test system: umbrella sedge (Cyperus difformis); experiment: Test B flooded paddy test; conditions: Cyperus difformis, Flood, 1000 g ai/ha; scale 0 to 100; read-out: Plant response rating, Sedge, Umbrella
Outline: as §1

[4] = test system: blackgrass (Alopecurus myosuroides); experiment: Test B postemergence; conditions: Alopecurus myosuroides, post-emergence
Outline: (§2)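 Compounds in non-phytotoxic solvent with surfactant applied preemergence to planted seeds or postemergence to plants 2 to 18 cm tall (1- to 4-leaf stage). Greenhouse 13 to 15 days, then visual rating against controls on a 0 to 100 scale (100 = complete control).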

wild oat (Avena fatua) = experiment: Test B postemergence; conditions: Avena fatua, post-emergence
Outline: as §2

[5] = test system: velvetleaf (Abutilon theophrasti); experiment: Test B pre/postemergence; conditions: Abutilon theophrasti; for pest or weed control at 125 g/ha: 125 g ai/ha; for pest or weed control at 500 g/ha: 500 g ai/ha
Outline: as §2

[6] = test system: giant foxtail (Setaria faberii); experiment: Test B pre/postemergence; conditions: Setaria faberi; for pest or weed control at 125 g/ha: 125 g ai/ha; for pest or weed control at 500 g/ha: 500 g ai/ha
Outline: as §2

[7] = test system: barnyardgrass (Echinochloa crus-galli); experiment: Test B pre/postemergence; conditions: Echinochloa crus-galli; for pest or weed control at 125 g/ha: 125 g ai/ha; for pest or weed control at 500 g/ha: 500 g ai/ha
Outline: as §2

[8] = test system: Surinam grass (Brachiaria decumbens); experiment: Test B pre/postemergence; conditions: Urochloa decumbens; for pest or weed control at 125 g/ha: 125 g ai/ha; for pest or weed control at 500 g/ha: 500 g ai/ha
Outline: as §2

[9] = test system: morningglory (Ipomoea coccinea); experiment: Test B pre/postemergence; conditions: Ipomoea; for pest or weed control at 125 g/ha: 125 g ai/ha; for pest or weed control at 500 g/ha: 500 g ai/ha
Outline: as §2

[10] = test system: wheat (Triticum aestivum); experiment: Test B pre/postemergence; conditions: Triticum aestivum; for plant injury at 125 g/ha: 125 g ai/ha; for plant injury at 500 g/ha: 500 g ai/ha
Outline: as §2

[11] = test system: cocklebur (Xanthium strumarium); experiment: Test B pre/postemergence; conditions: Xanthium strumarium; for pest or weed control at 125 g/ha: 125 g ai/ha; for pest or weed control at 500 g/ha: 500 g ai/ha
Outline: as §2

[12] = test system: pigweed (Amaranthus retroflexus); experiment: Test B pre/postemergence; conditions: Amaranthus retroflexus; for pest or weed control at 125 g/ha: 125 g ai/ha; for pest or weed control at 500 g/ha: 500 g ai/ha
Outline: as §2

[13] = test system: lambsquarters (Chenopodium album); experiment: Test B pre/postemergence; conditions: Chenopodium album; for pest or weed control at 125 g/ha: 125 g ai/ha; for pest or weed control at 500 g/ha: 500 g ai/ha
Outline: as §2

corn (Zea mays) = experiment: Test B pre/postemergence; conditions: Zea mays
Outline: as §2

[14] = test system: crabgrass (Digitaria sanguinalis); experiment: Test B pre/postemergence; conditions: Digitaria sanguinalis; for pest or weed control at 125 g/ha: 125 g ai/ha; for pest or weed control at 500 g/ha: 500 g ai/ha
Outline: as §2

Work on `COC(=O)c1nc(C2CC2)nc(N)c1Br` [Compound 2, methyl 6-amino-5-bromo-2-cyclopropyl-4-pyrimidinecarboxylate] yielded a pest or weed control at 1000 g/ha [1] of 90%, a plant injury at 1000 g/ha (rice (Oryza sativa)) of 60% and a pest or weed control at 1000 g/ha [2] of 90%. The pest or weed control at 1000 g/ha [3] was 90%, the pest or weed control at 125 g/ha ([4]; 125 g ai/ha, scale 0 to 100 (0 no effect, 100 complete control), read-out: Blackgrass plant response rating) was 50% and the pest or weed control at 500 g/ha ([4]; 500 g ai/ha, scale 0 to 100, read-out: Plant response rating, Blackgrass) was 80%. The pest or weed control at 125 g/ha (wild oat (Avena fatua); 125 g ai/ha, scale 0 to 100 (0 no effect, 100 complete control), read-out: Oat, Wild plant response rating) was 40%, the pest or weed control at 500 g/ha (wild oat (Avena fatua); 500 g ai/ha, scale 0 to 100, read-out: Plant response rating, Oat, Wild) was 70% and the pest or weed control at 125 g/ha ([5]; post-emergence, Postemergence, scale 0 to 100 (0 no effect, 100 complete control), read-out: Velvetleaf plant response rating) was 60%. The pest or weed control at 500 g/ha ([5]; post-emergence, Postemergence, scale 0 to 100, read-out: Plant response rating, Velvetleaf) was 100%, the pest or weed control at 125 g/ha ([5]; pre-emergence, Preemergence, scale 0 to 100 (0 no effect, 100 complete control), read-out: Plant response rating, Velvetleaf) was 90% and the pest or weed control at 500 g/ha ([5]; pre-emergence, Preemergence, scale 0 to 100 (0 no effect, 100 complete control), read-out: Velvetleaf plant response rating) was 100%. It also gave a pest or weed control at 125 g/ha ([6]; post-emergence, Postemergence, scale 0 to 100 (0 no effect, 100 complete control), read-out: Foxtail, Giant plant response rating) of 70%, a pest or weed control at 500 g/ha ([6]; post-emergence, Postemergence, scale 0 to 100, read-out: Plant response rating, Foxtail, Giant) of 80% and a pest or weed control at 125 g/ha ([6]; pre-emergence, Preemergence, scale 0 to 100 (0 no effect, 100 complete control), read-out: Plant response rating, Foxtail, Giant) of 30%. The pest or weed control at 500 g/ha ([6]; pre-emergence, Preemergence, scale 0 to 100 (0 no effect, 100 complete control), read-out: Foxtail, Giant plant response rating) was 90%, the pest or weed control at 125 g/ha ([7]; post-emergence, Postemergence, scale 0 to 100 (0 no effect, 100 complete control), read-out: Barnyardgrass plant response rating) was 90% and the pest or weed control at 500 g/ha ([7]; post-emergence, Postemergence, scale 0 to 100, read-out: Plant response rating, Barnyardgrass) was 90%. It also gave a pest or weed control at 125 g/ha ([7]; pre-emergence, Preemergence, scale 0 to 100 (0 no effect, 100 complete control), read-out: Plant response rating, Barnyardgrass) of 70%, a pest or weed control at 500 g/ha ([7]; pre-emergence, Preemergence, scale 0 to 100 (0 no effect, 100 complete control), read-out: Barnyardgrass plant response rating) of 90% and a pest or weed control at 125 g/ha ([8]; post-emergence, Postemergence, scale 0 to 100 (0 no effect, 100 complete control), read-out: Surinam Grass plant response rating) of 90%. It also gave a pest or weed control at 500 g/ha ([8]; post-emergence, Postemergence, scale 0 to 100, read-out: Plant response rating, Surinam Grass) of 90%, a pest or weed control at 125 g/ha ([8]; pre-emergence, Preemergence, scale 0 to 100 (0 no effect, 100 complete control), read-out: Plant response rating, Surinam Grass) of 40% and a pest or weed control at 500 g/ha ([8]; pre-emergence, Preemergence, scale 0 to 100 (0 no effect, 100 complete control), read-out: Surinam Grass plant response rating) of 90%. The pest or weed control at 125 g/ha ([9]; post-emergence, Postemergence, scale 0 to 100 (0 no effect, 100 complete control), read-out: Morningglory plant response rating) was 100%, the pest or weed control at 500 g/ha ([9]; post-emergence, Postemergence, scale 0 to 100, read-out: Plant response rating, Morningglory) was 100% and the pest or weed control at 125 g/ha ([9]; pre-emergence, Preemergence, scale 0 to 100 (0 no effect, 100 complete control), read-out: Plant response rating, Morningglory) was 100%. The pest or weed control at 500 g/ha ([9]; pre-emergence, Preemergence, scale 0 to 100 (0 no effect, 100 complete control), read-out: Morningglory plant response rating) was 100%, the plant injury at 125 g/ha ([10]; post-emergence, Postemergence, scale 0 to 100 (0 no effect, 100 complete control), read-out: Wheat plant response rating) was 40% and the plant injury at 500 g/ha ([10]; post-emergence, Postemergence, scale 0 to 100, read-out: Plant response rating, Wheat) was 70%. For the same compound, the plant injury at 125 g/ha ([10]; pre-emergence, Preemergence, scale 0 to 100 (0 no effect, 100 complete control), read-out: Plant response rating, Wheat) was 60%, the plant injury at 500 g/ha ([10]; pre-emergence, Preemergence, scale 0 to 100 (0 no effect, 100 complete control), read-out: Wheat plant response rating) was 70% and the pest or weed control at 125 g/ha ([11]; post-emergence, Postemergence, scale 0 to 100 (0 no effect, 100 complete control), read-out: Cocklebur plant response rating) was 100%. For the same compound, the pest or weed control at 500 g/ha ([11]; post-emergence, Postemergence, scale 0 to 100, read-out: Plant response rating, Cocklebur) was 100%, the pest or weed control at 125 g/ha ([11]; pre-emergence, Preemergence, scale 0 to 100 (0 no effect, 100 complete control), read-out: Plant response rating, Cocklebur) was 90% and the pest or weed control at 500 g/ha ([11]; pre-emergence, Preemergence, scale 0 to 100 (0 no effect, 100 complete control), read-out: Cocklebur plant response rating) was 100%. It also gave a pest or weed control at 125 g/ha ([12]; post-emergence, Postemergence, scale 0 to 100 (0 no effect, 100 complete control), read-out: Pigweed plant response rating) of 100%, a pest or weed control at 500 g/ha ([12]; post-emergence, Postemergence, scale 0 to 100, read-out: Plant response rating, Pigweed) of 100% and a pest or weed control at 125 g/ha ([12]; pre-emergence, Preemergence, scale 0 to 100 (0 no effect, 100 complete control), read-out: Plant response rating, Pigweed) of 90%. It also gave a pest or weed control at 500 g/ha ([12]; pre-emergence, Preemergence, scale 0 to 100 (0 no effect, 100 complete control), read-out: Pigweed plant response rating) of 100%, a pest or weed control at 125 g/ha ([13]; post-emergence, Postemergence, scale 0 to 100 (0 no effect, 100 complete control), read-out: Lambsquarters plant response rating) of 100% and a pest or weed control at 500 g/ha ([13]; post-emergence, Postemergence, scale 0 to 100, read-out: Plant response rating, Lambsquarters) of 100%. It also gave a pest or weed control at 125 g/ha ([13]; pre-emergence, Preemergence, scale 0 to 100 (0 no effect, 100 complete control), read-out: Plant response rating, Lambsquarters) of 100%, a pest or weed control at 500 g/ha ([13]; pre-emergence, Preemergence, scale 0 to 100 (0 no effect, 100 complete control), read-out: Lambsquarters plant response rating) of 100% and a plant injury at 125 g/ha (corn (Zea mays); post-emergence, Postemergence, 125 g ai/ha, scale 0 to 100 (0 no effect, 100 complete control), read-out: Corn plant response rating) of 20%. It also gave a Corn plant response rating (crop injury, 0 = no effect, 100 = complete kill) at 500 g/ha (corn (Zea mays); post-emergence, Postemergence, 500 g ai/ha, scale 0 to 100) of 80%, a Corn plant response rating (crop injury, 0 = no effect, 100 = complete kill) at 125 g/ha (corn (Zea mays); pre-emergence, Preemergence, 125 g ai/ha, scale 0 to 100 (0 no effect, 100 complete control)) of 0% and a plant injury at 500 g/ha (corn (Zea mays); pre-emergence, Preemergence, 500 g ai/ha, scale 0 to 100 (0 no effect, 100 complete control), read-out: Corn plant response rating) of 80%. For the same compound, the pest or weed control at 125 g/ha ([14]; post-emergence, Postemergence, scale 0 to 100 (0 no effect, 100 complete control), read-out: Crabgrass plant response rating) was 90%, the pest or weed control at 500 g/ha ([14]; post-emergence, Postemergence, scale 0 to 100, read-out: Plant response rating, Crabgrass) was 90% and the pest or weed control at 125 g/ha ([14]; pre-emergence, Preemergence, scale 0 to 100 (0 no effect, 100 complete control), read-out: Plant response rating, Crabgrass) was 90%. The pest or weed control at 500 g/ha ([14]; pre-emergence, Preemergence, scale 0 to 100 (0 no effect, 100 complete control), read-out: Crabgrass plant response rating) was 90%.
